Measured values published in patent US20190177279A1, “CARBOXYLIC ACID AROMATIC 1,2-CYCLOPROPYLAMIDES” (Bayer Pharma Aktiengesellschaft, priority 2017, published 2019).

Legend:
[1] = test system: stimulated IMR-90 cells; experiment: Cell viability, CellTiter-Glo Luminescent Assay; format: cell-based, human
Procedure: IMR-90 cells were cultured in Eagle's Minimum Essential Medium (EMEM) containing 2 mM L-glutamine, 1 g/L glucose, 1.5 g/L NaHCO3, 1 mM sodium pyruvate and non-essential amino acids (ATCC, 30-2003™) supplemented with 10% FBS (Biochrom, 50615) and 50 U/mL Penicillin, 50 μg/mL Streptomycin (PAA, P11-010). The assay was performed in EMEM and a cell density of […] IMR-90 cells/96-well. The compound examples were serially diluted in 100% DMSO and evaluated at 8 different concentrations within the range of 3 nM and 10 μM and a final DMSO concentration of 0.4%. The IMR-90 cells were incubated with the respective concentration of the compound for 30 min. […] The amount of IL-6 and IL-8 in the supernatant was determined using the Human ProInflammatory Panel II (4-Plex) (MSD, K15025B) according to manufacturer's instruction. […] Plates were washed three times with phosphate-buffered saline (PBS; 137 mM NaCl, 2.7 mM KCl, 6.5 mM Na2HP04, 1.7 mM KH2P04) containing 0.05% Tween-20 (Bio-Rad, 161-0781) and electrochemiluminescence detected using the MSD Sector Imager 6000 plate reader. The cell viability was measured using the CellTiter-Glo Luminescent Assay (Promega, G7571) following the manufacturers protocol. […] After incubation and shaking for 10 minutes luminescent signal was measured which was proportional to the amount of ATP present. […]

[2] = test system: IL-6 secretion; experiment: Bradykinin B1 receptor agonist-induced secretion of IL-6 in human IMR-90 cells; format: cell-based; conditions: 0.1 μM Lys-[Des-Arg9]Bradykinin and 0.1 μM Sar-[D-Phe8]-des-Arg9-Bradykinin, 5 hours
Source text: Inhibitory Activity on Bradykinin B1 Receptor Agonist-Induced Secretion of IL-6 and IL-8 in Human IMR-90 Cells
The effect of the compound examples on secretion of the cytokine IL-6 and IL-8 was investigated in the human foetal lung fibroblast IMR-90 cell line. Here the induction of the cytokine secretion was induced by the Bradykinin B1 receptor agonists Lys-[Des-Arg9]Bradykinin (CAS 71800-36-7, Tocris Bioscience) and Sar-[D-Phe8]-des-Arg9-Bradykinin (CAS 126959-88-4, Tocris Bioscience) leading to the activation of the Bradykinin B1-driven signalling pathway. […]
IMR-90 cells were cultured in Eagle's Minimum Essential Medium (EMEM) containing 2 mM L-glutamine, 1 g/L glucose, 1.5 g/L NaHCO3, 1 mM sodium pyruvate and non-essential amino acids (ATCC, 30-2003™) supplemented with 10% FBS (Biochrom, 50615) and 50 U/mL Penicillin, 50 μg/mL Streptomycin (PAA, P11-010). […] The compound examples were serially diluted in 100% DMSO and evaluated at 8 different concentrations within the range of 3 nM and 10 μM and a final DMSO concentration of 0.4%. […] The amount of IL-6 and IL-8 in the supernatant was determined using the Human ProInflammatory Panel II (4-Plex) (MSD, K15025B) according to manufacturer's instruction. […] The cell viability was measured using the CellTiter-Glo Luminescent Assay (Promega, G7571) following the manufacturers protocol. […]

O=C(O)c1cc(NC(=O)C2CC2c2ccc(Cl)cc2)cc(F)c1-c1cnn(C2CCC2)c1 (racemic) [Example 2, 5-({[2-(4-chlorophenyl)cyclopropyl]carbonyl}amino)-2-(1-cyclobutyl-1H-pyrazol-4-yl)-3-fluorobenzoic acid]
effect on the cell viability [1]: no effect | IC50 [2]: 322 nM
